Test results: publication PMC5218480 (PLoS ONE, 2017)

Tested on: MV-4-11 cells
Assay: Gene expression microarray analysis (Affymetrix PrimeView) and GSEA
Assay type: cell-based, human
Design: RFU PODN (11730768_x_at) / Fold change /veh PODN (11730768_x_at) / RFU LINC00158 (11744669_a_at) / Fold change /veh LINC00158 (11744669_a_at) / RFU DUSP10 (11751237_a_at) / Fold change /veh DUSP10 (11751237_a_at) / RFU ID3 (11757404_x_at) / Fold change /veh ID3 (11757404_x_at) / RFU PLEKHG5 (11737974_s_at) / Fold change /veh PLEKHG5 (11737974_s_at) / RFU LRRC4B (11730491_at) / Fold change /veh LRRC4B (11730491_at) / RFU GIMAP4 (11747438_a_at) / Fold change /veh GIMAP4 (11747438_a_at) / RFU KRT8 (11758183_x_at) / Fold change /veh KRT8 (11758183_x_at) / RFU CNN1 (11734310_a_at) / Fold change /veh CNN1 (11734310_a_at) / RFU VPS37D (11726825_at) / Fold change /veh VPS37D (11726825_at) / RFU C10orf10 (11716522_x_at) / Fold change /veh C10orf10 (11716522_x_at) / RFU KIR2DL2 /// KIR2DL4 /// KIR2DL5A /// KIR2DL5B /// KIR2DS1 /// KIR2DS2 /// KIR2DS3 /// KIR2DS4 /// KIR3DL3 /// KIR3DL3 /// KIR3DS1 (11738374_at) / Fold change /veh KIR2DL2 /// KIR2DL4 /// KIR2DL5A /// KIR2DL5B /// KIR2DS1 /// KIR2DS2 /// KIR2DS3 /// KIR2DS4 /// KIR3DL3 /// KIR3DL3 /// KIR3DS1 (11738374_at) / RFU C1QL1 (11718748_at) / Fold change /veh C1QL1 (11718748_at) / RFU TMPRSS4 (11747572_a_at) / Fold change /veh TMPRSS4 (11747572_a_at) / RFU HAMP (11756126_x_at) / Fold change /veh HAMP (11756126_x_at) / RFU RNFT2 (11725882_a_at) / Fold change /veh RNFT2 (11725882_a_at) / RFU NR4A2 (11747474_a_at) / Fold change /veh NR4A2 (11747474_a_at) / RFU ABCC12 (11746883_a_at) / Fold change /veh ABCC12 (11746883_a_at) / RFU TMEM136 (11760407_x_at) / Fold change /veh TMEM136 (11760407_x_at) / RFU CLDN22 /// WWC2 (11732394_at) / Fold change /veh CLDN22 /// WWC2 (11732394_at) / RFU HLA-DPB1 (11760878_x_at) / Fold change /veh HLA-DPB1 (11760878_x_at) / RFU SPINT1 (11716480_a_at) / Fold change /veh SPINT1 (11716480_a_at) / RFU GAP43 (11754022_s_at) / Fold change /veh GAP43 (11754022_s_at) / RFU A4GNT (11735810_at) / Fold change /veh A4GNT (11735810_at) / RFU PRB3 (11715151_x_at) / Fold change /veh PRB3 (11715151_x_at) / RFU TUBB4B (11761932_at) / Fold change /veh TUBB4B (11761932_at) / RFU CAPN14 (11732068_a_at) / Fold change /veh CAPN14 (11732068_a_at) / RFU TMCC2 (11721928_a_at) / Fold change /veh TMCC2 (11721928_a_at) / RFU IRGQ (11745062_a_at) / Fold change /veh IRGQ (11745062_a_at) / RFU FAM174B (11720279_a_at) / Fold change /veh FAM174B (11720279_a_at) / RFU TMPRSS4 (11748680_a_at) / Fold change /veh TMPRSS4 (11748680_a_at) / RFU FAM212B (11763350_a_at) / Fold change /veh FAM212B (11763350_a_at) / RFU PLEKHG5 (11743358_a_at) / Fold change /veh PLEKHG5 (11743358_a_at) / RFU ZSCAN30 (11745921_a_at) / Fold change /veh ZSCAN30 (11745921_a_at) / RFU CMKLR1 (11741424_a_at) / Fold change /veh CMKLR1 (11741424_a_at) / RFU LOC101060620 /// MAPK8IP1 (11723275_at) / Fold change /veh LOC101060620 /// MAPK8IP1 (11723275_at) / RFU SPTSSB (11747773_x_at) / Fold change /veh SPTSSB (11747773_x_at) / RFU PRSS12 (11739890_at) / Fold change /veh PRSS12 (11739890_at) / RFU BIN1 (11741810_x_at) / Fold change /veh BIN1 (11741810_x_at) / RFU WNT11 (11732464_a_at) / Fold change /veh WNT11 (11732464_a_at) / RFU C10orf10 (11716521_a_at) / Fold change /veh C10orf10 (11716521_a_at) / RFU C5orf56 (11738089_at) / Fold change /veh C5orf56 (11738089_at) / RFU CYB561 (11721691_x_at) / Fold change /veh CYB561 (11721691_x_at) / RFU ANKRD19P (11752326_a_at) / Fold change /veh ANKRD19P (11752326_a_at) / RFU OR2T12 /// OR2T33 /// OR2T8 (11738714_s_at) / Fold change /veh OR2T12 /// OR2T33 /// OR2T8 (11738714_s_at) / RFU VCAN (11748164_a_at) / Fold change /veh VCAN (11748164_a_at) / RFU JSRP1 (11732532_at) / Fold change /veh JSRP1 (11732532_at) / RFU KRTAP10-11 (11738290_x_at) / Fold change /veh KRTAP10-11 (11738290_x_at) / RFU MYO3A (11730013_a_at) / Fold change /veh MYO3A (11730013_a_at) / RFU EBF3 (11725865_a_at) / Fold change /veh EBF3 (11725865_a_at) / RFU CAMK2N1 (11719241_x_at) / Fold change /veh CAMK2N1 (11719241_x_at) / RFU C5orf56 (11738088_a_at) / Fold change /veh C5orf56 (11738088_a_at) / RFU OLFML3 (11715873_a_at) / Fold change /veh OLFML3 (11715873_a_at) / RFU LOC100653217 /// NTM (11731650_a_at) / Fold change /veh LOC100653217 /// NTM (11731650_a_at) / RFU MAPK11 (11762145_a_at) / Fold change /veh MAPK11 (11762145_a_at) / RFU FIZ1 (11724087_x_at) / Fold change /veh FIZ1 (11724087_x_at) / RFU OASL (11726364_x_at) / Fold change /veh OASL (11726364_x_at) / RFU SOX15 (11748057_x_at) / Fold change /veh SOX15 (11748057_x_at) / RFU CD79A (11719716_a_at) / Fold change /veh CD79A (11719716_a_at) / RFU HIST1H1D (11736915_at) / Fold change /veh HIST1H1D (11736915_at) / RFU CASKIN2 (11723855_a_at) / Fold change /veh CASKIN2 (11723855_a_at) / RFU LOC730098 (11760151_x_at) / Fold change /veh LOC730098 (11760151_x_at) / RFU OR4N2 (11742367_at) / Fold change /veh OR4N2 (11742367_at) / RFU PRRT2 (11749266_a_at) / Fold change /veh PRRT2 (11749266_a_at) / RFU SNX32 (11753110_a_at) / Fold change /veh SNX32 (11753110_a_at) / RFU CDHR5 (11726645_a_at) / Fold change /veh CDHR5 (11726645_a_at) / RFU RCAN1 (11760418_a_at) / Fold change /veh RCAN1 (11760418_a_at) / RFU FAM167A (11723789_a_at) / Fold change /veh FAM167A (11723789_a_at) / RFU FAM26E (11764081_at) / Fold change /veh FAM26E (11764081_at) / RFU ISYNA1 (11749810_s_at) / Fold change /veh ISYNA1 (11749810_s_at) / RFU ACY1 (11761880_at) / Fold change /veh ACY1 (11761880_at) / RFU 11764098_at / Fold change /veh 11764098_at / RFU SAMD14 (11745864_x_at) / Fold change /veh SAMD14 (11745864_x_at) / RFU NPB (11741838_a_at) / Fold change /veh NPB (11741838_a_at) / RFU TMPRSS6 (11731388_a_at) / Fold change /veh TMPRSS6 (11731388_a_at) / RFU KRTAP10-2 (11738614_at) / Fold change /veh KRTAP10-2 (11738614_at) / RFU ARHGAP8 /// PRR5-ARHGAP8 (11727945_x_at) / Fold change /veh ARHGAP8 /// PRR5-ARHGAP8 (11727945_x_at) / RFU KRTAP5-7 /// NADSYN1 (11734609_at) / Fold change /veh KRTAP5-7 /// NADSYN1 (11734609_at) / RFU RASL12 (11751679_a_at) / Fold change /veh RASL12 (11751679_a_at) / RFU CDKN2B (11736163_a_at) / Fold change /veh CDKN2B (11736163_a_at) / RFU PRF1 (11729649_at) / Fold change /veh PRF1 (11729649_at) / RFU, ZNF638 /// ZNF638-IT1 / Fold change vs veh, ZNF638 /// ZNF638-IT1 / RFU, PANK3 / Fold change vs veh, PANK3 / RFU, SH3YL1 / Fold change vs veh, SH3YL1 / RFU, ZEB2 / Fold change vs veh, ZEB2 / RFU, NRIP1 / Fold change vs veh, NRIP1 / RFU, PTTG1IP / Fold change vs veh, PTTG1IP / RFU, CAPN2 / Fold change vs veh, CAPN2 / RFU, MED14 / Fold change vs veh, MED14 / RFU, SNORA58 / Fold change vs veh, SNORA58 / RFU, C1orf63 / Fold change vs veh, C1orf63 / RFU, LRRFIP1 / Fold change vs veh, LRRFIP1 / RFU, NDUFAF7 / Fold change vs veh, NDUFAF7 / RFU, SLC12A2 / Fold change vs veh, SLC12A2 / RFU, IBTK / Fold change vs veh, IBTK / RFU, ESF1 / Fold change vs veh, ESF1 / Fold change vs veh, TMEM50B / RFU, TAOK1 / Fold change vs veh, TAOK1 / RFU, ACBD3 / Fold change vs veh, ACBD3 / RFU, TMA16 / Fold change vs veh, TMA16 / RFU, RWDD3 / Fold change vs veh, RWDD3 / RFU, BCAT1 / Fold change vs veh, BCAT1 / RFU, EDEM3 / Fold change vs veh, EDEM3 / RFU, TMEM33 / Fold change vs veh, TMEM33 / RFU, WDR75 / Fold change vs veh, WDR75 / RFU, AHCTF1 / Fold change vs veh, AHCTF1 / RFU, TFRC / Fold change vs veh, TFRC / RFU, ZDHHC17 / Fold change vs veh, ZDHHC17 / RFU, NOM1 / Fold change vs veh, NOM1 / RFU, ARL8B / Fold change vs veh, ARL8B / RFU, ZBTB11 / Fold change vs veh, ZBTB11 / RFU, TAMM41 / Fold change vs veh, TAMM41 / RFU, KIAA1704 /// LOC100996395 / Fold change vs veh, KIAA1704 /// LOC100996395 / RFU, ING1 / Fold change vs veh, ING1 / RFU, TRMT61B / Fold change vs veh, TRMT61B / RFU, FUBP3 / Fold change vs veh, FUBP3 / RFU, TP53 / Fold change vs veh, TP53 / RFU, TNKS2 / Fold change vs veh, TNKS2 / RFU, ZFP14 / Fold change vs veh, ZFP14 / RFU, ACTR2 / Fold change vs veh, ACTR2 / RFU, PPP3R1 / Fold change vs veh, PPP3R1 / RFU, PIK3R1 / Fold change vs veh, PIK3R1 / RFU, HNRNPA1 / Fold change vs veh, HNRNPA1 / RFU, RNF170 / Fold change vs veh, RNF170 / RFU, ZNF28 / Fold change vs veh, ZNF28 / RFU, RNGTT / Fold change vs veh, RNGTT / RFU, OGT / Fold change vs veh, OGT / RFU, BRD1 / Fold change vs veh, BRD1 / RFU, MARS / Fold change vs veh, MARS / RFU, ZNF655 / Fold change vs veh, ZNF655 / RFU, FAHD1 / Fold change vs veh, FAHD1 / RFU, BDP1 / Fold change vs veh, BDP1 / RFU, LRRCC1 / Fold change vs veh, LRRCC1 / RFU, ARID1A / Fold change vs veh, ARID1A / RFU, ZNF146 / Fold change vs veh, ZNF146 / RFU, ZNF330 / Fold change vs veh, ZNF330 / RFU, GPN3 / Fold change vs veh, GPN3 / RFU, C9orf123 / Fold change vs veh, C9orf123 / RFU, N4BP2L2 / Fold change vs veh, N4BP2L2 / RFU, ARFIP1 / Fold change vs veh, ARFIP1 / RFU, FAM179B / Fold change vs veh, FAM179B / RFU, BCL10 / Fold change vs veh, BCL10 / RFU, UHRF1BP1L / Fold change vs veh, UHRF1BP1L / RFU, BET1 / Fold change vs veh, BET1 / RFU, CNOT2 / Fold change vs veh, CNOT2 / RFU, ZNF268 / Fold change vs veh, ZNF268 / Fold change vs veh, ZNF507 / RFU, DGCR2 / Fold change vs veh, DGCR2 / RFU, WDSUB1 / Fold change vs veh, WDSUB1 / Fold change vs veh, HSP90B1 /// MIR3652 / RFU, ADSS / Fold change vs veh, ADSS / RFU, GK / Fold change vs veh, GK / RFU, ZNF148 / Fold change vs veh, ZNF148 / RFU, TAF9 / Fold change vs veh, TAF9 / RFU, SLC1A5 / Fold change vs veh, SLC1A5 / RFU, SLMO2 / Fold change vs veh, SLMO2 / RFU, ABCC4 / Fold change vs veh, ABCC4 / RFU, LOC101060439 /// RAP1B / Fold change vs veh, LOC101060439 /// RAP1B / RFU, RFX7 / Fold change vs veh, RFX7 / RFU, GTPBP10 / Fold change vs veh, GTPBP10 / RFU, CNEP1R1 / Fold change vs veh, CNEP1R1 / RFU, BIVM-ERCC5 /// ERCC5 / Fold change vs veh, BIVM-ERCC5 /// ERCC5 / RFU, ILF3 / Fold change vs veh, ILF3 / RFU 11762660_at / Fold change /veh 11762660_at / RFU VCAN (11757783_s_at) / Fold change /veh VCAN (11757783_s_at) / RFU DDX43 (11728927_at) / Fold change /veh DDX43 (11728927_at) / RFU KRT8 (11758188_x_at) / Fold change /veh KRT8 (11758188_x_at) / RFU NKD1 (11759106_at) / Fold change /veh NKD1 (11759106_at) / RFU SRD5A1 (11742802_a_at) / Fold change /veh SRD5A1 (11742802_a_at) / RFU TPSAB1 /// TPSB2 (11721975_s_at) / Fold change /veh TPSAB1 /// TPSB2 (11721975_s_at) / RFU GSTM3 (11746129_a_at) / Fold change /veh GSTM3 (11746129_a_at) / RFU IL23R (11737362_x_at) / Fold change /veh IL23R (11737362_x_at) / RFU TMEM51 (11727254_a_at) / Fold change /veh TMEM51 (11727254_a_at) / RFU PIWIL2 (11732686_x_at) / Fold change /veh PIWIL2 (11732686_x_at) / RFU ORM1 (11744905_x_at) / Fold change /veh ORM1 (11744905_x_at) / RFU CCDC152 (11743942_at) / Fold change /veh CCDC152 (11743942_at) / RFU ECM1 (11717891_a_at) / Fold change /veh ECM1 (11717891_a_at) / RFU IL23R (11748794_a_at) / Fold change /veh IL23R (11748794_a_at) / RFU TNFAIP8L3 (11732012_x_at) / Fold change /veh TNFAIP8L3 (11732012_x_at) / RFU MBOAT4 (11741988_at) / Fold change /veh MBOAT4 (11741988_at) / RFU 11764193_at / Fold change /veh 11764193_at / RFU TMEM53 (11763286_at) / Fold change /veh TMEM53 (11763286_at) / RFU MAGEB2 (11727129_at) / Fold change /veh MAGEB2 (11727129_at) / RFU TMEM200A (11744735_a_at) / Fold change /veh TMEM200A (11744735_a_at) / RFU CCDC152 (11751479_a_at) / Fold change /veh CCDC152 (11751479_a_at) / RFU FAM211A (11726209_a_at) / Fold change /veh FAM211A (11726209_a_at) / RFU RGS16 (11746705_a_at) / Fold change /veh RGS16 (11746705_a_at) / RFU VCAN (11755009_s_at) / Fold change /veh VCAN (11755009_s_at) / RFU RHOB (11743442_s_at) / Fold change /veh RHOB (11743442_s_at) / RFU RGS16 (11720943_a_at) / Fold change /veh RGS16 (11720943_a_at) / RFU RGS16 (11720944_at) / Fold change /veh RGS16 (11720944_at) / RFU, VPS4B / Fold change vs veh, VPS4B / RFU, CREB1 / Fold change vs veh, CREB1 / RFU, DNAJC13 / Fold change vs veh, DNAJC13 / RFU, GNAQ / Fold change vs veh, GNAQ / RFU, CDK5R1 / Fold change vs veh, CDK5R1 / RFU, ZRANB3 / Fold change vs veh, ZRANB3 / RFU, CUL4A / Fold change vs veh, CUL4A / RFU, CCNY / Fold change vs veh, CCNY / RFU, UFL1 / Fold change vs veh, UFL1 / RFU, COG3 / Fold change vs veh, COG3 / RFU, DIAPH2 / Fold change vs veh, DIAPH2 / RFU, SKA2 / Fold change vs veh, SKA2 / RFU, AFF3 / Fold change vs veh, AFF3 / RFU, LMF1 / Fold change vs veh, LMF1 / RFU, IPO11 / Fold change vs veh, IPO11 / RFU, DFFB / Fold change vs veh, DFFB / RFU, FOXP1 / Fold change vs veh, FOXP1 / RFU, CARD8 / Fold change vs veh, CARD8 / RFU, STRN3 / Fold change vs veh, STRN3 / RFU, ADK / Fold change vs veh, ADK / RFU, RASSF2 / Fold change vs veh, RASSF2 / RFU, WIPF1 / Fold change vs veh, WIPF1 / RFU, LARP1B / Fold change vs veh, LARP1B / RFU, RASA1 / Fold change vs veh, RASA1 / RFU, RB1 / Fold change vs veh, RB1 / RFU, PPFIA1 / Fold change vs veh, PPFIA1 / RFU, MAT2A / Fold change vs veh, MAT2A / RFU, CCT5 / Fold change vs veh, CCT5 / RFU, WDR92 / Fold change vs veh, WDR92 / RFU, CUX1 / Fold change vs veh, CUX1 / RFU, TTC7A / Fold change vs veh, TTC7A / RFU, TMEM135 / Fold change vs veh, TMEM135 / RFU, DEPTOR / Fold change vs veh, DEPTOR / RFU, CPM / Fold change vs veh, CPM / RFU, DNAJB6 / Fold change vs veh, DNAJB6 / RFU, CACNA2D3 / Fold change vs veh, CACNA2D3 / RFU, DTX4 / Fold change vs veh, DTX4 / RFU, TFCP2 / Fold change vs veh, TFCP2 / RFU, GMCL1 /// GMCL1P1 / Fold change vs veh, GMCL1 /// GMCL1P1 / RFU, AEBP2 / Fold change vs veh, AEBP2 / RFU, SNHG1 /// SNORD22 /// SNORD25 /// SNORD26 /// SNORD27 /// SNORD28 /// SNORD29 /// SNORD31 / Fold change vs veh, SNHG1 /// SNORD22 /// SNORD25 /// SNORD26 /// SNORD27 /// SNORD28 /// SNORD29 /// SNORD31 / Fold change (Aza/veh), C12orf56 (ProbeSet 11735607_a_at) / Fold change (ACY-1035/veh), C12orf56 (ProbeSet 11735607_a_at) / Fold change (Aza/veh), FGFR1OP (ProbeSet 11751329_s_at) / Fold change (ACY-1035/veh), FGFR1OP (ProbeSet 11751329_s_at) / Fold change (Aza/veh), VPS36 (ProbeSet 11739960_a_at) / Fold change (ACY-1035/veh), VPS36 (ProbeSet 11739960_a_at) / RFU SYPL1 (11715823_x_at) / Fold change /veh SYPL1 (11715823_x_at) / RFU IGFBP7 (11715501_s_at) / Fold change /veh IGFBP7 (11715501_s_at) / RFU REEP3 (11722064_at) / Fold change /veh REEP3 (11722064_at) / RFU IGLL1 (11728026_x_at) / Fold change /veh IGLL1 (11728026_x_at): dose or concentration left out as unconfirmed
Conditions: MV-4-11 cells, 48 hours

Q: For `Nc1ccc(-c2cccs2)cc1NC(=O)c1ccc2c(c1)cc(C1CC1)n2CCN1CCOCC1` [ACY-1035], which “RFU RNFT2 (11725882_a_at)” value is on record?
A: The value was 13.97 RFU.
